From patent publication US20050043379A1, “LTA4H Modulators” (priority 2003, published 2005)
Counter-ions that a name gives are not always drawn. Like-named read-outs stand apart in the source and are kept apart here.

How the values were obtained:
[1] = system: ionophore-induced LTB4 production; conditions: oral administration; cited from earlier work
colitis symptoms = conditions: eight weeks of treatment; cited from earlier work
[2] = system: ionophore-induced LTB4 production; conditions: oral administration; cited from earlier work; remark: listed apart in the source
[3] = system: neutrophil influx (myeloperoxidase activity) in arachidonic acid-treated ear; test: Murine arachidonic acid-induced inflammation model: neutrophil influx by myeloperoxidase (MPO) activity in ear biopsies; assay type: in vivo, mouse (female Balb/c); conditions: Mus musculus, read-out: % Inh. MPO
Method: Murine Arachidonic Acid-induced Inflammation Model LTA4H inhibitor compounds of the present invention were dissolved in 20% cyclodextran/H2O at a concentration of 3 mg/mL. The solutions were administered by oral gavage to female Balb/c mice weighing approximately 20 grams each (0.2 mL per mouse, 30 mg of LTA4H inhibitor compound per kg). Sixty minutes after being administered an LTA4 inhibitor, each mouse received topical application of 20 μL of arachidonic acid (100 mg/mL in acetone) to the left ear and 20 μL of acetone only to the right ear. After 3 h, the mice were sacrificed, blood was withdrawn in heparinized syringes, and 8 mm ear biopsies were taken. Ear biopsies were weighed to determine edema and then frozen at -80° C. until needed for determination of neutrophil influx. Neutrophil influx was quantified by measuring the activity of myeloperoxidase (MPO), a neutrophil-specific enzyme. […] Debris was removed by centrifugation at 14000×g for 10 min. […] The microtiter plate contents were held at room temperature for 1 h. The reaction was stopped by addition of 100 μ[…] H2SO4 to each sample well, and the myeloperoxidase activity in each sample was determined from the absorbance at 405 nm. The background value from the right ear, treated only with acetone, was subtracted from that for the left ear, treated with arachidonic acid in acetone, for each animal. The percent inhibition of neutrophil influx (% Inh. MPO) by compounds of the invention was determined by comparison to animals treated identically, except that the solution administered by oral gavage was devoid of inhibitor compound.

[4] = TABLE 8, 30 mg/kg oral gavage, ear biopsies 3 h after topical arachidonic acid (given 60 min after dose)
[5] = TABLE 7, 30 mg/kg oral gavage, ear biopsies 3 h after topical arachidonic acid (given 60 min after dose)

Structure (SMILES)	inhibition at 30 mg/kg [3, 4] [%]	other results
CN(CCCOc1ccc(Cc2ccccc2)cc1)CCC(=O)O.Cl [SC57461]	–	inhibition of ionophore-induced LTB4 production in rat peritoneum in vivo [1]: caused inhibition of ionophore-induced LTB4 production; colitis symptoms (colitis symptoms): significantly improved colitis symptoms; inhibition of ionophore-induced LTB4 production in mouse blood ex vivo [2]: caused inhibition of ionophore-induced LTB4 production
O=C(O)C1CCN(CCc2ccc(Oc3nc4ccccc4s3)cc2)CC1 [Example 150, 1-{2-[4-(Benzothiazol-2-yloxy)-phenyl]-ethyl}-piperidine-4-carboxylic acid]	91	–
O=C1C[C@H](O)CN1C1CCN(CCc2ccc(Oc3nc4ccccc4s3)cc2)CC1 [Example 336, (S)-1-(1-{2-[4-(Benzothiazol-2-yloxy)-phenyl]-ethyl}-piperidin-4-yl)-4-hydroxy-pyrrolidin-2-one]	0	–
O=C1C[C@H](O)CN1C1CCN(Cc2ccc(Oc3nc4ccccc4s3)cc2)CC1 [Example 447, 1-{1-[4-(Benzothiazol-2-yloxy)-benzyl]-piperidin-4-yl}-4-hydroxy-pyrrolidin-2-one]	48	–
O=C(CO)N1CCN(CCc2ccc(Oc3nc4ccccc4s3)cc2)CC1 [Example 325, 1-(4-{2-[4-(Benzothiazol-2-yloxy)-phenyl]-ethyl}-piperazin-1-yl)-2-hydroxy-ethanone]	67	–
O=C(O)C1CCN(Cc2ccc(Oc3nc4ccccc4s3)cc2)CC1 [Example 250, 1-[4-(Benzothiazol-2-yloxy)-benzyl]-piperidine-4-carboxylic acid]	94	–
OC1(c2ccccc2)CCN(CCCOc2ccc(Oc3nc4ccccc4o3)cc2)CC1 [Example 27, 1-{3-[4-(Benzooxazol-2-yloxy)-phenoxy]-propyl}-4-phenyl-piperidin-4-ol]	–	inhibition at 30 mg/kg [3, 5]: 72%
O=C(O)C1CCN(CCOc2ccc(Oc3nc4ccccc4s3)cc2)CC1 [Example 18, 1-{2-[4-(Benzothiazol-2-yloxy)-phenoxy]-ethyl}-piperidine-4-carboxylic acid potassium salt]	–	inhibition at 30 mg/kg ([3]; po): 83%
c1ccc2oc(Oc3ccc(OCCN4CCCCC4)cc3)nc2c1 [Example 11, 2-[4-(2-Piperidin-1-yl-ethoxy)-phenoxy]-benzooxazole]	–	inhibition at 30 mg/kg [3, 5]: 95%
CS(=O)(=O)NC1CCN(Cc2ccc(Oc3nc4ccccc4s3)cc2)CC1 [Example 361, N-{1-[4-(Benzothiazol-2-yloxy)-benzyl]-piperidin-4-yl}-methanesulfonamide]	90	–
NC(=O)C1CCN(Cc2ccc(Oc3nc4ccccc4s3)cc2)CC1 [Example 274, 1-[4-(Benzothiazol-2-yloxy)-benzyl]-piperidine-4-carboxylic acid amide]	87	–
c1ccc2sc(Oc3ccc(OCCn4nnnc4C4CCNCC4)cc3)nc2c1 [Example 206, 2-{4-[2-(5-Piperidin-4-yl-tetrazol-1-yl)-ethoxy]-phenoxy}-benzothiazole]	76	–
O=C(O)C1CCCN(CCc2ccc(Oc3nc4ccccc4s3)cc2)C1 (stereo not drawn) [Example 155, 1-{2-[4-(Benzothiazol-2-yloxy)-phenyl]-ethyl}-piperidine-3-carboxylic acid]	93	–
OCC1CCCCN1CCOc1ccc(Oc2nc3ccccc3s2)cc1 (stereo not drawn) [Example 263, (1-{2-[4-(Benzothiazol-2-yloxy)-phenoxy]-ethyl}-piperidin-2-yl)-methanol]	19	–
O=C1C[C@@H](O)CN1C1CCN(Cc2ccc(Oc3nc4ccccc4s3)cc2)CC1 [Example 446, 1-{1-[4-(Benzothiazol-2-yloxy)-benzyl]-piperidin-4-yl}-4-hydroxy-pyrrolidin-2-one]	43	–
OC1CCN(CCOc2ccc(Oc3nc4ccccc4o3)cc2)CC1 [Example 14, 1-{2-[4-(Benzooxazol-2-yloxy)-phenoxy]-ethyl}-piperidin-4-ol]	–	inhibition at 30 mg/kg [3, 5]: 56%
